pEC50: −log10 of the molar value. Where two headings read alike, the source gives them in different places.
Key:
ULK3 = target: T1, ULK3 (Homo sapiens, UniProt Q6PHR2); assay: KINOMEScan; assay type: binding; design: dose or concentration left out as unconfirmed
T1 construct: purchased DiscoverX KINOMEscan

[1] = test system: AKT, S6, ERK, p70S6K and STAT3 phosphorylation; assay: Signaling pathway study in BaF3-TEL-KIT-V559D cells; assay type: cell-based; conditions: KIT-V559D transformed stable BaF3 cells, Western blot
JNK2 = target: T2, JNK2 (Homo sapiens, UniProt P45984); assay: KINOMEScan; assay type: binding; design: dose or concentration left out as unconfirmed
T2 construct: purchased DiscoverX KINOMEscan

MST3 = target: T3, MST3 (Homo sapiens, UniProt Q9Y6E0); assay: KINOMEScan; assay type: binding; design: dose or concentration left out as unconfirmed
T3 construct: purchased DiscoverX KINOMEscan

IRAK4 = target: T4, IRAK4 (Homo sapiens, UniProt Q9NWZ3); assay: KINOMEScan; assay type: binding; design: dose or concentration left out as unconfirmed
T4 construct: purchased DiscoverX KINOMEscan

[2] = target: T5, RSK4(Kin.Dom.2-C-terminal) (Homo sapiens, UniProt Q9UK32); assay: KINOMEScan; assay type: binding
T5 construct: RSK4(Kin.Dom.2-C-terminal); purchased DiscoverX KINOMEscan

KIT V559D/V654A = KIT V559D/V654A (Homo sapiens, UniProt P10721, V559D/V654A); assay: KIT auto-phosphorylation in transformed BaF3 cells; conditions: 2h
[3] = target: T6, JAK1(JH2domain-pseudokinase) (Homo sapiens, UniProt P23458); assay: KINOMEScan; assay type: binding; design: dose or concentration left out as unconfirmed
T6 construct: JAK1(JH2domain-pseudokinase); purchased DiscoverX KINOMEscan

ARK5 = target: T7, ARK5 (Homo sapiens, UniProt O60285); assay: KINOMEScan; assay type: binding; design: dose or concentration left out as unconfirmed
T7 construct: purchased DiscoverX KINOMEscan

EGFR(E746-A750del) = target: T8, EGFR(E746-A750del) (Homo sapiens, UniProt P00533, DEL746-750); assay: KINOMEScan; assay type: binding; conditions: Concentrations 1 mM
T8 construct: purchased DiscoverX KINOMEscan

KIT V559D = KIT V559D (Homo sapiens, UniProt P10721, V559D); assay: KIT auto-phosphorylation in KIT V559D overexpressed Colo320DM cells; assay type: cell-based; design: expressed in transfected cells; host or cells: Colo320DM (transient)
Text: In order to better define CHMFL-KIT-031’s inhibitory effect against KIT V559D mutant, we then tested it with purified KIT wt/V559D kinase protein by ADP-Glo assay (Figure 2A). […] We also transformed and overexpressed KIT V559D transiently into Colo320DM cells which express wt KIT kinase and tested CHMFL-KIT-031’s inhibitory effects for the auto-phosphorylation of KIT Y703, 719 and Y823 sites.
KIT-V559D kinase domain coding sequence was inserted into a pMSCV puro vector (Clontech) that was modified by inserting a 3×FLAG sequence at the 3’ end of the multicloning sites. The vector was transiently transfected into Colo320DM cells with TransIN™EL transfection reagent.

KIT T670I = KIT T670I (Homo sapiens, UniProt P10721, T670I); assay: KIT auto-phosphorylation in transformed BaF3 cells; conditions: 2h
SYK = target: T9, SYK (Homo sapiens, UniProt P43405); assay: KINOMEScan; assay type: binding; design: dose or concentration left out as unconfirmed
T9 construct: purchased DiscoverX KINOMEscan

JNK3 = target: T10, JNK3 (Homo sapiens, UniProt P53779); assay: KINOMEScan; assay type: binding; design: dose or concentration left out as unconfirmed
T10 construct: purchased DiscoverX KINOMEscan

MLK3 = target: T11, MLK3 (Homo sapiens, UniProt Q16584); assay: KINOMEScan; assay type: binding; design: dose or concentration left out as unconfirmed
T11 construct: purchased DiscoverX KINOMEscan

MST1 = target: T12, MST1 (Homo sapiens, UniProt Q13043); assay: KINOMEScan; assay type: binding; design: dose or concentration left out as unconfirmed
T12 construct: purchased DiscoverX KINOMEscan

MET(M1250T) = target: T13, MET(M1250T) (Homo sapiens, UniProt P08581, M1250T); assay: KINOMEScan; assay type: binding; design: dose or concentration left out as unconfirmed
T13 construct: purchased DiscoverX KINOMEscan

MKK7 = target: T14, MKK7 (Homo sapiens, UniProt O14733); assay: KINOMEScan; assay type: binding; design: dose or concentration left out as unconfirmed
T14 construct: purchased DiscoverX KINOMEscan

DLK = target: T15, DLK (Homo sapiens, UniProt Q12852); assay: KINOMEScan; assay type: binding; design: dose or concentration left out as unconfirmed
T15 construct: purchased DiscoverX KINOMEscan

PRKR = target: T16, PRKR (Homo sapiens, UniProt P19525); assay: KINOMEScan; assay type: binding; design: dose or concentration left out as unconfirmed
T16 construct: purchased DiscoverX KINOMEscan

CHEK1 = target: T17, CHEK1 (Homo sapiens, UniProt O14757); assay: KINOMEScan; assay type: binding; design: dose or concentration left out as unconfirmed
T17 construct: purchased DiscoverX KINOMEscan

CSNK1G2 = target: T18, CSNK1G2 (Homo sapiens, UniProt P78368); assay: KINOMEScan; assay type: binding; design: dose or concentration left out as unconfirmed
T18 construct: purchased DiscoverX KINOMEscan

[4] = EC50 pY703 auto-phosphorylation
[5] = EC50 pY719 auto-phosphorylation
[6] = EC50 pY823 auto-phosphorylation

Sequence of KIT V559D (P10721 546-976 V559D limits assumed): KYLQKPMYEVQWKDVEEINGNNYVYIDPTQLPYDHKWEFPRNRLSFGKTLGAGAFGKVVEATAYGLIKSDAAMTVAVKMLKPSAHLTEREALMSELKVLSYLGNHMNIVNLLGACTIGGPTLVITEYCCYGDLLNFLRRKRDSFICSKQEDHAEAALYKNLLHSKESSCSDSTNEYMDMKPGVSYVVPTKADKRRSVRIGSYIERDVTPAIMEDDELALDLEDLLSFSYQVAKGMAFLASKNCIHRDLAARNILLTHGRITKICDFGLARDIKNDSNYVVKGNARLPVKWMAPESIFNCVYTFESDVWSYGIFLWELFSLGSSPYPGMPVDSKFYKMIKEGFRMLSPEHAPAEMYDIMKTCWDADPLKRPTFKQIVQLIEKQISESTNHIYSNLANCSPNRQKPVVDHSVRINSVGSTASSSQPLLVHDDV
Sequence of KIT T670I (P10721 26-976 T670I): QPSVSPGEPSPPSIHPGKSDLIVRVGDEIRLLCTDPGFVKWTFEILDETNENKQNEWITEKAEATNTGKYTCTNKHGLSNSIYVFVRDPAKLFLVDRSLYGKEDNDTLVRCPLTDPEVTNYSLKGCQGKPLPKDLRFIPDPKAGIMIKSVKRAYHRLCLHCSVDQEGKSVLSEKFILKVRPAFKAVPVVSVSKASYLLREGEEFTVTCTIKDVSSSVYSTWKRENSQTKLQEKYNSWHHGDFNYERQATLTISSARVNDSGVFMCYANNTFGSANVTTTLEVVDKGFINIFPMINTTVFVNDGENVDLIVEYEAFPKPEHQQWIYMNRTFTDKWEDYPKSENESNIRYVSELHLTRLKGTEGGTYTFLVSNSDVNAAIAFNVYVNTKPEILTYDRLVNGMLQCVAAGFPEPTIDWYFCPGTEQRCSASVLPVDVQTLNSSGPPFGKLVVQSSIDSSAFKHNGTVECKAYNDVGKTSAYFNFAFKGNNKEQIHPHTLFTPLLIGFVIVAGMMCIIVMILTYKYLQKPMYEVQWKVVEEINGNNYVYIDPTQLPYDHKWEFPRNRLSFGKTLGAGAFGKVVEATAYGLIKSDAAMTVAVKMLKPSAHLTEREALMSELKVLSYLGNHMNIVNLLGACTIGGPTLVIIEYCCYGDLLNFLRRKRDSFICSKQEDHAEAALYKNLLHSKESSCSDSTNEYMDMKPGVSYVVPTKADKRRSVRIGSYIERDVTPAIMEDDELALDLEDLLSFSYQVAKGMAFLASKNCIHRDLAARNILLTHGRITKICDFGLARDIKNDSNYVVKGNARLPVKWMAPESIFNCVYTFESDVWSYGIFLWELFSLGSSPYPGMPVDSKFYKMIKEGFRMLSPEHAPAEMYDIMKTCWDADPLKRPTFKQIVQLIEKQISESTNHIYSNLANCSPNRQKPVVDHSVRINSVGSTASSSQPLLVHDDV
Sequence of KIT V559D/V654A (P10721 546-976 V559D/V654A): as the sequence (P10721 546-976 V559D limits assumed) above, with V109A counted along it
T17 sequence (O14757 whole entry): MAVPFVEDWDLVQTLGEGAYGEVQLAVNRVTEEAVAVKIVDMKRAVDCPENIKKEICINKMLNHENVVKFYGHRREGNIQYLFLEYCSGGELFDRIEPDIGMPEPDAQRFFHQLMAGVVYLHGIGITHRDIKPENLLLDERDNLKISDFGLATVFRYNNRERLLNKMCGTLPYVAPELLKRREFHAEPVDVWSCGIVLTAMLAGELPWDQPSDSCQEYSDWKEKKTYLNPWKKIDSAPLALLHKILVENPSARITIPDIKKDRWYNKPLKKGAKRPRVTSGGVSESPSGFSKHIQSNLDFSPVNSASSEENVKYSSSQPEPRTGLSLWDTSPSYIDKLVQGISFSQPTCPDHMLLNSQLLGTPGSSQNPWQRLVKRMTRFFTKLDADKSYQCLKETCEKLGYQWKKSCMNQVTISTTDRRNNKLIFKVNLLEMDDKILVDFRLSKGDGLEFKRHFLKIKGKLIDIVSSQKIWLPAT
T10 sequence (P53779 whole entry): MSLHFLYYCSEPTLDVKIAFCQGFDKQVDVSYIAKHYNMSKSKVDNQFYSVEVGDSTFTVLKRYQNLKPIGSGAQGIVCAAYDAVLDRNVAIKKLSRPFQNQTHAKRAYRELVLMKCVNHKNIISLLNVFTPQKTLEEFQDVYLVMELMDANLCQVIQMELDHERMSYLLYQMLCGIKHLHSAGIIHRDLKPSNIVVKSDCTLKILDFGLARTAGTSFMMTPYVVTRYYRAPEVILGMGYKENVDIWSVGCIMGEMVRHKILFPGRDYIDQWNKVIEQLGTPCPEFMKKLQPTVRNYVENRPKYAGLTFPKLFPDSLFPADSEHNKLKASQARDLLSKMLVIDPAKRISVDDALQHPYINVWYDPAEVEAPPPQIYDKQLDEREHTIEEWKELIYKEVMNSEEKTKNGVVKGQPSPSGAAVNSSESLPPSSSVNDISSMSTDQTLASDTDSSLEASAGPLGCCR
T2 sequence (P45984 whole entry): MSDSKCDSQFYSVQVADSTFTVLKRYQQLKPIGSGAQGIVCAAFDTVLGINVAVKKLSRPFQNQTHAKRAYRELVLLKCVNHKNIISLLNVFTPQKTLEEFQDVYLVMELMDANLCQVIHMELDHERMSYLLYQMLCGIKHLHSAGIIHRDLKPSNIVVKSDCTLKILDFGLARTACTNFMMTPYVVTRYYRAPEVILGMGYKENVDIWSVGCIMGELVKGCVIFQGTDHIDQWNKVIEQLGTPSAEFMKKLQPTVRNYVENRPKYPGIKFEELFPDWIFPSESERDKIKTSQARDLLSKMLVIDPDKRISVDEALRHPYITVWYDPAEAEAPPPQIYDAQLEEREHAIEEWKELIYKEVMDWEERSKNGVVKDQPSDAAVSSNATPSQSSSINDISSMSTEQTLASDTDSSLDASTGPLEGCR
T8 sequence (P00533 with tags, fused parts or gaps DEL746-750 limits assumed): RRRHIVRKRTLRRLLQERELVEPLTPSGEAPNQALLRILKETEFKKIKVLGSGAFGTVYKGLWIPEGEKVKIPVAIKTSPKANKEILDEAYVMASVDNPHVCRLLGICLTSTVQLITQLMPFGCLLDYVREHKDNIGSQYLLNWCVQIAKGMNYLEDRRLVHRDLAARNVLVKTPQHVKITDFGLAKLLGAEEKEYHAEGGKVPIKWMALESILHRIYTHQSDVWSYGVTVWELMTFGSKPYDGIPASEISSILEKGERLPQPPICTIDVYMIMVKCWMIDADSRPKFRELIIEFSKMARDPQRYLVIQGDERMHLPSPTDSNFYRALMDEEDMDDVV
T6 sequence (P23458 583-855 limits assumed): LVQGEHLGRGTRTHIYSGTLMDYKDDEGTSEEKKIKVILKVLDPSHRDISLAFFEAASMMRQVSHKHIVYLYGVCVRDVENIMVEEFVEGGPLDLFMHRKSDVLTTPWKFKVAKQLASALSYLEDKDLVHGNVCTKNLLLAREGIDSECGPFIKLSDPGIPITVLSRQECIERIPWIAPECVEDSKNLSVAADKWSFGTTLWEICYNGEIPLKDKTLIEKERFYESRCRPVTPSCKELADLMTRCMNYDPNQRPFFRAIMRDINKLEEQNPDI
T4 sequence (Q9NWZ3 whole entry): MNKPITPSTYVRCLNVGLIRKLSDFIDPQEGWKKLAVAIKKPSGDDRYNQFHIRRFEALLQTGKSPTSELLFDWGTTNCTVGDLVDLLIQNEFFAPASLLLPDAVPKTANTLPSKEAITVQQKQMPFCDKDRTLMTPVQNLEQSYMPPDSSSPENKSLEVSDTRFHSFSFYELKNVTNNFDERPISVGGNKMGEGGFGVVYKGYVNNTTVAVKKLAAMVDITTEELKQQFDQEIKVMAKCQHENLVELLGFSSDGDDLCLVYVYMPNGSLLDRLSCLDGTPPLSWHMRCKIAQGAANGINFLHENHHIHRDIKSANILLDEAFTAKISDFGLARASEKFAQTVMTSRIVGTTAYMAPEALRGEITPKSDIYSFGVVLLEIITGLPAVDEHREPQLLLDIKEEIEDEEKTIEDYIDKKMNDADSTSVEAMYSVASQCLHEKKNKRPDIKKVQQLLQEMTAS
T12 sequence (Q13043 whole entry): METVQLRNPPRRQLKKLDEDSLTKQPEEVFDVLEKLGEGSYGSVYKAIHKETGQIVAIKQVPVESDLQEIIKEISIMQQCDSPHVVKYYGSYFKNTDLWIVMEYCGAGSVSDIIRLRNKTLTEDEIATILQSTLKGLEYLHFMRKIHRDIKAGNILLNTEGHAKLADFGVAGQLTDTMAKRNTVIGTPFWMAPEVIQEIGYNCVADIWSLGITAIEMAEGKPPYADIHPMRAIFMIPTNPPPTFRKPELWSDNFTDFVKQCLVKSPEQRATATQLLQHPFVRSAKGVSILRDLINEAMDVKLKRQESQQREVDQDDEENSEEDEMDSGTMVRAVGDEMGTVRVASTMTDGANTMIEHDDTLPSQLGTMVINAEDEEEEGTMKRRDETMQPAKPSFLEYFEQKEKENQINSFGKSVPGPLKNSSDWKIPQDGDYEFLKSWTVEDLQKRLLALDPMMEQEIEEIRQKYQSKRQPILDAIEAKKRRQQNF
T3 sequence (Q9Y6E0 whole entry): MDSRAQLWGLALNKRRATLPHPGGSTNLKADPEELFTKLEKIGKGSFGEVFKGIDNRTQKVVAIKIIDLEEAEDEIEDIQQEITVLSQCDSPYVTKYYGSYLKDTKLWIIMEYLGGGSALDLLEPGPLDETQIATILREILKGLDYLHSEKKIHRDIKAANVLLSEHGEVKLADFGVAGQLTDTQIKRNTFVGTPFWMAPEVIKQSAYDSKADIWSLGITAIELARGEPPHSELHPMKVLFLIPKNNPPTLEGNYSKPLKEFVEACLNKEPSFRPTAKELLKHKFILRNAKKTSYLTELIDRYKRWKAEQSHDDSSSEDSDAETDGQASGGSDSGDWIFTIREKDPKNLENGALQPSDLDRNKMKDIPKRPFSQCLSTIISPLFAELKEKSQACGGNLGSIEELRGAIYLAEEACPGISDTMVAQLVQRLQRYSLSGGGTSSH

COc1cc(C(=O)NCC(=O)Nc2ccc3c(/C=C/c4ccccn4)n[nH]c3c2)cc(OC)c1OC [CHMFL-KIT-031]
KINOMEScan profiling value (ULK3): 89 | phosphorylation of downstream mediators AKT, S6, ERK, p70S6K and STAT3 [1]: potently inhibited | KINOMEScan profiling value (JNK2): 92 | KINOMEScan profiling value (MST3): 86 | KINOMEScan profiling value (IRAK4): 100 | KINOMEScan profiling value [2]: 100 | pEC50 (KIT V559D/V654A; [4]): 5.25 | pEC50 (KIT V559D/V654A; [5]): 6.06 | pEC50 (KIT V559D/V654A; [6]): 5.27 | KINOMEScan profiling value [3]: 85 | KINOMEScan profiling value (ARK5): 97 | KINOMEScan profiling value (EGFR(E746-A750del)): 100 | pEC50 (KIT V559D; COLO 320DM-KIT-V559D, read-out: EC50 P-CKIT Y719): 6.62 | pEC50 (KIT V559D; COLO 320DM-KIT-V559D, read-out: EC50 P-CKIT Y823): 6.83 | pEC50 (KIT V559D; Colo320DM cells overexpressing KIT V559D, range over the sites, read-out: EC50 phosphorylation of KIT V559D mutant (Y703, 719 and Y823 sites)): 6.47 to 6.75 | selectivity compared to KIT wt at the corresponding phosphorylation sites (KIT V559D; Colo320DM cells, EC50): over 10 fold | pEC50 (KIT V559D; in cell, KIT V559D, read-out: EC50 pY703): 6.75 | pEC50 (KIT T670I; [4]): < 5.00 | pEC50 (KIT T670I; [5]): < 5.00 | pEC50 (KIT T670I; [6]): 5.96 | KINOMEScan profiling value (SYK): 100 | KINOMEScan profiling value (JNK3): 99 | KINOMEScan profiling value (MLK3): 100 | KINOMEScan profiling value (MST1): 89 | KINOMEScan profiling value (MET(M1250T)): 100 | KINOMEScan profiling value (MKK7): 100 | KINOMEScan profiling value (DLK): 97 | KINOMEScan profiling value (PRKR): 97 | KINOMEScan profiling value (CHEK1): 97 | KINOMEScan profiling value (CSNK1G2): 100

Source: paper PMC5762309 (Oncotarget, 2017)
